The text below walks through data of BindingDB's records for doi:10.1007/s00210-004-0951-4 (Vernalis Research, 2004).

Molecules are shown by their SMILES. Values joined by “and” are separate entries in the source; they are usually repeats but may differ in a detail not shown here. Equal entries are not always repeated. Structures can show the parent of a compound that is named as a salt. A value given as a limit tells only on which side of the number the result lay.

Assay [1] has as its target T1, 5-hydroxytryptamine receptor 2C (Homo sapiens, UniProt P28335).
T1 sequence (P28335 whole entry): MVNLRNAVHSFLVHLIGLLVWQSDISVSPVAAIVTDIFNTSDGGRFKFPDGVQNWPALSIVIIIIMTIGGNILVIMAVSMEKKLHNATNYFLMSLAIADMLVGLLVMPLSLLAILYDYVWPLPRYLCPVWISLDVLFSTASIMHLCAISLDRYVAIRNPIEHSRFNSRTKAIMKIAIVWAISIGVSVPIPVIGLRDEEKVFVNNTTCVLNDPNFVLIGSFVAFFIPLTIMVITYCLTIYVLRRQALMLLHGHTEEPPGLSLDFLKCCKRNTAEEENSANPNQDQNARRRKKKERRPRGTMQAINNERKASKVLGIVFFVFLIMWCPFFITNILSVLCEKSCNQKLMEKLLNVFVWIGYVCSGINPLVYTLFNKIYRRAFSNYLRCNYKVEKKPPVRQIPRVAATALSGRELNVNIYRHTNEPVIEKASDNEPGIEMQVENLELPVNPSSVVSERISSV

The target of assay [2] is 5-hydroxytryptamine receptor 2B (Homo sapiens, UniProt P41595).
Sequence of 5-hydroxytryptamine receptor 2B (P41595 whole entry): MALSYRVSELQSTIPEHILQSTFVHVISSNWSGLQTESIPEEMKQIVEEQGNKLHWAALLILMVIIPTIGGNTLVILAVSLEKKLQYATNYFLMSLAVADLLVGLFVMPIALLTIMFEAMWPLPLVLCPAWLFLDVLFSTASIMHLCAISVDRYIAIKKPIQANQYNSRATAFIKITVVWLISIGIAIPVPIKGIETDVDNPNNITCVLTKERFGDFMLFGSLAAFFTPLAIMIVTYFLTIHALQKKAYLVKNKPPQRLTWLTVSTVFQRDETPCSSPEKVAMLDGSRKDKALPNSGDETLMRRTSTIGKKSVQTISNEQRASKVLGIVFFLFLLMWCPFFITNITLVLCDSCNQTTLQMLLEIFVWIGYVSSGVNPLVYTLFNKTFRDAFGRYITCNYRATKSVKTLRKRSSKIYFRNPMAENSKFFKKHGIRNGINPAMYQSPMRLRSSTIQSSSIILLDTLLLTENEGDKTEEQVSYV

By Ki is commonly meant the dissociation constant of the complex between target and ligand, obtained from inhibition or displacement. For `O=C1NCN(c2ccccc2)C12CCN(CCCOc1ccc(F)cc1)CC2` [NSC_77445], the Ki in assay [1] is 1.55 µM.
As to `C[C@H](N)Cc1cccc(C(F)(F)F)c1` [Norfenfluramine (+)], the Ki in assay [1] was determined as 0.0513 µM; in assay [2], 0.1 µM.
As to `CCCN1CCCC2Cc3[nH]ncc3CC21` (stereo not drawn) [NSC_55397], the Ki in assay [1] came out at 3.31 µM; in assay [2] it was 0.302 µM.
On the same counts, the results for `CN1CC(C(=O)NC2(C)OC3(O)C4CCCN4C(=O)C(Cc4ccccc4)N3C2=O)C=C2c3cccc4[nH]cc(c34)CC21` (stereo not drawn) [CAS_113-15-5] are 0.00191 µM and 0.00129 µM.
On the same counts, the results for `CN1CC[C@@H]2CN3CCc4cccc(c43)[C@@H]2C1` [SDZ SER 082 FUMARATE] are 0.00759 µM and 0.204 µM.
Turning to `Cc1nc2sccn2c(=O)c1CCN1CCC(=C(c2ccc(F)cc2)c2ccc(F)cc2)CC1`, the Ki in assay [1] is 0.00661 µM; in assay [2], 0.00214 µM.
Turning to `CCC(CO)NC(=O)C1C=C2c3cccc4[nH]cc(c34)CC2N(C)C1` (stereo not drawn) [NSC_8226], the results for the Ki in assay [1] and in assay [2] were 0.00457 µM and 0.00046 µM, respectively.
In assay [2], `CCCN(CCC)C1CCc2cccc(O)c2C1` (stereo not drawn) had a Ki of 4.07 µM.
`Cc1cc2c(cc1Cl)N(C(=O)Nc1ccc(Oc3cccnc3C)nc1)CC2` [CAS_181632-25-7]: the Ki in assay [1] was found to be 0.00708 µM; in assay [2] it was 0.145 µM.
In assay [2], `Cn1ccc2cc3c(cc21)CCN3C(=O)Nc1cccnc1` gave a Ki of 0.0224 µM. This lies in the double-digit nanomolar range.
Regarding `CC(C)CC(N)C1(c2ccc(Cl)cc2)CCC1` (stereo not drawn) [NSC_134771], the Ki in assay [1] and in assay [2] was more than 10 µM in each case.
As for `O=C(CCCN1CCC2(CC1)C(=O)NCN2c1ccccc1)c1ccc(F)cc1` [8-[4-(4-fluorophenyl)-4-oxidanylidene-butyl]-1-phenyl-1,3,8-triazaspiro[4.5]decan-4-one], in assay [1], the inhibitory constant (Ki) was determined as 0.603 µM.
Molecule `Cc1cc(NC(=O)Nc2ccc3c(ccn3C)c2)sn1` [CAS_3277600] showed a Ki in assay [2] of 0.126 µM.
`c1ccc2nc(N3CCNCC3)ccc2c1` [2-Piperazin-1-yl-quinoline (Quipazine)]: the Ki in assay [1] turned out to be 0.0537 µM; in assay [2], 0.0851 µM.
In assay [2], `CN1CC(NS(=O)(=O)N(C)C)CC2c3cccc4c3c(cn4C)CC21` (stereo not drawn) [CAS_64795-35-3] returned a Ki of 0.00347 µM.
On to `CN1CCN(c2nc3cc(C(F)(F)F)ccc3n3cccc23)CC1` [CAS_109028-10-6], for which the Ki in assay [2] was found to be 0.871 µM. Compared with the last molecule, the Ki is about 250-fold higher.
For `COc1cc(CC(C)N)c(OC)cc1I` (stereo not drawn) [[125I]2,5-dimethoxy-4-iodoamphetamine], the inhibitory constant (Ki) in assay [1] was 0.00832 µM and 0.00537 µM; in assay [2] it was 0.0282 µM and 0.0537 µM.
Regarding `Cn1cc(CCN)c2cc(O)ccc21` [5-HT,omega-N-Me], the Ki in assay [1] is 0.00269 µM; in assay [2] it was 0.00692 µM.
As for `C[C@H](N)CN1CCc2ccc(Br)cc21`, the Ki in assay [1] was found to be 0.00562 µM; in assay [2], 0.0302 µM.
Turning to `Clc1cncc(N2CCNCC2)n1` [L-630,571], the Ki in assay [1] was determined as 0.0977 µM; in assay [2], 0.617 µM.
On the same counts, the results for `OC(c1ccccc1)C1CCN(CCc2ccccc2)CC1` (stereo not drawn) [MDL-11939] are 0.263 µM and 3.31 µM.
`NCCc1c[nH]c2ccccc12` [1H-indole-3-ethanamine]: the Ki was found to be 2.34 µM in assay [1] and 0.102 µM in assay [2].
As to `CC(N)Cn1ccc2cc(F)c(Cl)cc21` (stereo not drawn) [NSC_3045226], the Ki came out at 0.00603 µM in assay [1] and 0.00537 µM in assay [2].
In turn, `COc1cc(CC(C)N)c(OC)cc1Br` (stereo not drawn) [2-(4-Bromo-2,5-dimethoxy-phenyl)-1-methyl-ethylamine((-)-DOB)] registered a Ki in assay [2] of 0.0437 µM.
As for `CC[C@@H](CO)NC(=O)[C@@H]1C=C2c3cccc4c3c(cn4C)C[C@H]2N(C)C1`, the affinity in assay [1] corresponds to a Ki of 0.00447 µM.
In assay [2], `FC(F)(F)c1cccc(N2CCNCC2)c1` [TFMPP] yielded a Ki of 0.0589 µM.
In assay [1], `CC(N)Cc1c[nH]c2ccc(OCc3cccs3)cc12` (stereo not drawn) [NSC_5311036] gave a Ki of 0.0776 µM.
Consider `CSc1cc2c(cc1C(F)(F)F)N(C(=O)Nc1cccnc1)CC2`, for which the Ki in assay [1] was found to be 0.00219 µM; in assay [2], 0.00245 µM.
Consider `CC(C)c1cc(-c2ccc(F)c3ccccc23)nc(N)n1` [RS-127445], for which the values for the Ki in assay [1] and in assay [2] were 0.468 µM and 0.00107 µM, respectively.
Molecule `CSc1ccc2c(c1)C(N1CCN(C)CC1)Cc1ccccc1S2` (stereo not drawn) [methanesulfonic acid;1-methyl-4-(3-methylsulfanyl-5,6-dihydrobenzo[b][1]benzothiepin-5-yl)piperazine] displayed a Ki in assay [1] of 0.00447 µM.
Consider `COc1cc(OC)c(C(=O)CCCCN2CCC3(CC2)NC(=O)NC3=O)cc1NS(=O)(=O)c1ccc(C(F)(F)F)cc1` [N-[5-[5-(2,4-Dioxo-1,3,8-triazaspiro[4.5]decan-8-yl)-1-oxopentyl]-2,4-dimethoxyphenyl]-4-(trifluoromethyl)benzenesulfonamide], for which the Ki in assay [1] is 0.00501 µM; in assay [2] it was 2.88 µM.
Molecule `NCCc1c[nH]c2ccc(C(N)=O)cc12` [[3H]-5-carboxamidotryptamine] came in with a Ki in assay [2] of 0.186 µM.
For `COc1ccc2c(c1O[C@H]1CCNC1)CCC2` [ORG-37684], the Ki in assay [1] was 0.00759 µM; in assay [2], 0.0427 µM.
With `CC(C)CC(N(C)C)C1(c2ccc(Cl)cc2)CCC1` (stereo not drawn) [CAS_106650-56-0], the Ki in assay [1] is more than 10 µM.
Turning to `Cc1nc(-c2ccc(-c3ccc(C(=O)N4CCc5cc6c(cc54)C4(CCN(C)CC4)CO6)cc3)c(C)c2)no1` [4-[2-methyl-4-(5-methyl-1,2,4-oxadiazol-3-yl)phenyl]phenyl-1'-methylspiro[3,5,6,7-tetrahydro-2H-furo[2,3-f]indole-3,4'-(hexahydropyridine)]-5-ylmethanone], the results for the Ki in assay [1] and in assay [2] were 2 µM and 1.35 µM, respectively.
Take `FC(F)(F)c1ccc(N2CCNCC2)nc1Cl` [2-Chloro-3-(trifluoromethyl)-6-(1-piperazinyl)pyridine]: the values for the Ki in assay [1] and in assay [2] were 0.0148 µM and 0.0912 µM, respectively.
